According to PMC3734285, “Expression and Function of the Lipocalin-2 (24p3/NGAL) Receptor in Rodent and Human Intestinal Epithelia” (PLoS ONE, 2013):
Where two headings read alike, the source gives them in different places. Numbered stars: 1 amine (or outer) side, 2 acyl side, 3 side chain; on linkers, the order of the positions; unused ones are H or OH. Square brackets hold non-standard residues; d marks the D form. Peptide text beside a SMILES is read from it. * marks the point of attachment. X1 = N=c1ccc2c(-c3ccc(C(=O)*)cc3C(=O)O)c3ccc(N)c(S(=O)(=O)O)c3oc-2c1S(=O)(=O)O; γGlu = O=C(O)[C@H](CCC(=O)[*:2])N[*:1]

Key:
[1] = system: colon-like Caco-2 BBE cells; test: Internalization of fluorescence-labelled ligands, immunofluorescence microscopy; type: cell-based, human; conditions: for Kd: 24 h, up to 5.6 µM A488-PC3, FBS-free medium, 5-6 experiments
Description: The full-length clone of rat r24p3-R was transiently transfected into CHO cells 24 h after seeding using Lipofectamine 2000, as described previously. Forty eight hours after transfection, r24p3-R- and empty vector (pcDNA3.1)-transfected cells were incubated for 24 h with 0-2.8 µM A488-PC3, as described previously for A546-MT [24]. Colon- or duodenum-like Caco-2 BBE cells were seeded at a density of 50,000 cells/coverslip and grown for 48 h before addition of different concentrations of A488-PC3 or A546-MT ± hNGAL for 24 h in FBS-free medium. Cells were stained with primary α-NT-24p3-R antibody (1:100) and secondary Cy3-coupled anti-rabbit IgG (1:600) for A488-PC3 uptake or with A546-conjugated anti-rabbit IgG (1:600) for A546-MT uptake.
For each experiment, 5-10 images were acquired and quantified as described earlier. For determination of r24p3-R-dependent fluorescence uptake in CHO cells, values in vector-transfected cells were subtracted from values obtained in the corresponding r24p3-R-transfected cells. […] To determine hNGAL-R-specific uptake of fluorescent dye-labeled proteins in Caco-2 BBE cells 5 images of fields with clusters of hNGAL-R expressing Caco-2 BBE cells and 5 images of clusters of Caco-2 BBE cells not expressing hNGAL-R were analyzed in the absence or presence of the ligand of the hNGAL-R, hNGAL/lipocalin-2 (500 pM).
Unless otherwise indicated, the experiments were repeated at least three times and means ± S.D. were calculated, unless otherwise indicated. Analysis by unpaired Student’s t test or one-way ANOVA assuming equality of variance with Newman-Keuls Multiple Comparison test and Dunnett’s post-hoc test was performed with GraphPad Prism 5.0. […] Transcytosis data fitted using a one-phase exponential decay function. All curve fits were done with GraphPad Prism 5.0. Results with P < 0.05 were considered to be statistically significant.

[2] = system: colon-like Caco-2 BBE cell monolayers; test: Apical-to-basolateral transcytosis of fluorescence-labelled ligands across Transwell monolayers; type: in vitro ADME, human; conditions: colon-like Caco-2 BBE monolayers on Transwell, A-B, 700 nM ligand apical, control conditions (no hNGAL), fluorescence read-out; means ± SEM, n = 9-14
Description: For transyctosis studies Costar Transwell® culture inserts placed on 24-well plates were used (0.4 µM PE membrane, 0.33 cm^2 filter area. Corning Inc., Corning, NY, USA). Briefly, 1.3 ml of Caco-2 BBE medium with 10% FBS was added to the basolateral compartment and Caco-2 BBE colon-like cells were plated at a density of 5 x 10^4 cells/insert in 400 µl medium with 10% FBS added to the apical compartment. The transepithelial electrical resistance (TEER) across the cell monolayer was measured after 0, 24, 48, 72 h culture as well as before and after each experiment. The medium was replaced after 48 h on both, top (apical) and bottom (basolateral) compartments of the culture inserts. […] Before each experiment, the apical medium was replaced by 400 µl medium containing 1% FBS medium and the appropriate fluorescence-labelled ligand at a final concentration of 700 nM with or without 500 pM hNGAL whereas the basolateral medium with 10% FBS remained unchanged. At each experimental time point, 10 µl of the basolateral and the apical medium was removed, frozen at -80° C and subsequently analyzed for fluorescence intensity using standard capillaries in a Monolith NT.015 (NanoTemper Technologies GmbH, Munich, Germany). Data were quantified by semi-logarithmic plotting against standards obtained from stock solutions of fluorescent ligands. […]

Compound	Kd ([1]; read-out: first app KD of A488-PC3 internalization (two-site binding fit))	Kd ([1]; read-out: second app KD of A488-PC3 internalization (two-site binding fit))	effect of 500 pM hNGAL on uptake of 0.7 µM ligand ([1]; 24 h incubation, 0.7 µM ligand with 500 pM hNGAL, 4-5 experiments)	basolateral delivery (AUC over 8 h) [2]
N=c1ccc2c(-c3ccc(C(=O)N[C@@H](CCC(=O)N[C@@H](CS)C(=O)N[C@@H](CCC(=O)N[C@@H](CS)C(=O)N[C@@H](CCC(=O)N[C@@H](CS)C(=O)NCC(=O)O)C(=O)O)C(=O)O)C(=O)O)cc3C(=O)O)c3ccc(N)c(S(=O)(=O)O)c3oc-2c1S(=O)(=O)O [A488-PC3] ({X1-γGlu}-C[γGlu]C[γGlu]CG-OH; N-terminus and C-terminus assumed)	~90 nM	~300 nM	significantly reduced	299.4 ± 18.7 nM x 8 h
A546-Tf: Alexa Fluor 546-labelled transferrin from human serum (Molecular Probes)	–	–	–	402.4 ± 28.0 nM x 8 h
